Values quoted from earlier work as cited in patent publication US20240279190A1, “COMPOUNDS FOR MODULATING PLATELET-TYPE 12-(S)-LIPOXYGENASE AND METHODS OF USE FOR SAME” (The Regents of The University of California, priority 2021, published 2024).

Tested on: human islets
Details: 10 μM; different batches of human islets; cited from earlier work

Substance: ML355
- GSIS effect in a similar experiment: comparable results were observed
